Experimental data as given in patent US20070203228A1, “Method for treating chronic obstructive pulmonary disease” (SUCAMPO AG, priority 2006, published 2007).
Entries after “also recorded” stand apart in the source; their conditions may differ. Marks after values point to notes of the source that are not given here.

Legend:
[1] = tested on: cigarette smoke-exposed guinea pigs; assay: Specific airway resistance (sRaw) in cigarette smoke-exposed guinea pigs; assay type: in vivo, guinea pig; details: for Specific airway resistance (sRaw) Mean ± S.D.: 30 min from 1 hr before smoke exposure, Days 1 to 25, measured Day 26, n=7, control 2.154 ± 0.365, sham 1.131 ± 0.149
From the text: (§1) Guinea pigs were exposed to cigarette smoke using a smoking system (INH06-CIG01A, M.I.P.S. Inc.). Each animal was placed in an exposure holder, and the holder was fixed in an exposure chamber. Cigarette smoke of 30 cigarettes per day (Peace®, Japan Tobacco Inc.) was drawn from a smoke generator into the exposure chamber, 5 days per week, for 25 days (Days 1 to 25). In a sham exposure group, the atmospheric air, instead of cigarette smoke, was drawn into the exposure chamber.
(§2) Aqueous solution of Compound A (13,14-dihydro-15-keto-16,16-difluoro-18(S)-methyl-PGE1) was vaporized using a pressurized nebulizer (LC Plus Nebulizer, Pari GmbH) and inhaled by the animals in a chamber of an inhalation system (SIS-A, Sibata Scientific Technology Ltd.) for 30 minutes from 1 hr before the cigarette smoke exposure.
Specific airway resistance (sRaw) of conscious animals was measured by a double flow plethysmo-graph technique with a respiratory function measurement system (Pulmos-1, M.I.P.S Inc.) on Day 26.

[2] = tested on: cigarette smoke-exposed guinea pigs; assay: Pulmonary function (RV, FEV100) in cigarette smoke-exposed guinea pigs; assay type: in vivo, guinea pig
From the text: as §1, §2
After the sRaw measurements, animals were anesthetized with ketamine (60 mg/kg) and xylazine (8 mg/kg), and the trachea was cannulated. Pulmonary function was measured using a pulmonary function measurement system (Biosystem Manoeuvers, Buxco Electronics, Inc.). The parameters of measurement consisted of residual volume (RV) and forced expiratory volume at 100 msec (FEV100).

[3] = tested on: cigarette smoke-exposed guinea pigs; assay: Macrophage (monocyte) count in bronchoalveolar lavage fluid of cigarette smoke-exposed guinea pigs; assay type: in vivo, guinea pig
From the text: as §1, §2
After the measurement of pulmonary function, the animals were sacrificed by exsanguination under anesthesia and the thorax was opened. Five milliliters of saline were instilled into the lungs through a tracheal cannula, and the lavage fluid was recovered by gentle aspiration. This procedure was repeated and the recovered lavage fluid was combined (10 mL in total, bronchoalveolar lavage fluid, BALF). The number of macrophages (monocyte) in the BALF was counted.

[4] = tested on: Human lung alveolar type II cells (A549); assay: Cytochrome c translocation after cigarette smoke extract (CSE) treatment, cytochrome c ELISA; assay type: cell-based
Procedure: Smoke from 8 cigarettes was drawn slowly through 100 ml of serum free culture medium and the resulting suspension was filtered through 0.20 μm filter. The solution was considered as 100% cigarette smoke extract (CSE). Human lung alveolar type II cells (A549) were grown in 96 well plates for 48 hrs at a final concentration of 1.5×10^5 cells per well. The cells were then treated separately with either 100 nM Compound A or 1%, 2.5% and 5% CSE. In other sets, 100 nM Compound A was added along with 1%, 2.5% or 5% CSE. All incubations were done at 37° C. for 24 hrs. After 24 hr treatment, the cells were washed with 0-4° C. PBS three times. Measurement of cytochrome c that was translocated into the cytosol, a marker of cellular injury, was performed according to the instructions provided with a kit for cytochrome c ELISA assay.

[5] = compared with the control group

CC[C@H](C)CC(F)(F)C(=O)CC[C@H]1[C@H](O)CC(=O)[C@@H]1CCCCCCC(=O)O [Compound A, 13,14-dihydro-15-keto-16,16-difluoro-18(S)-methyl-PGE1]
Effect on increase in sRaw induced by cigarette smoke exposure [1, 5]: significantly inhibited the increase in sRaw | Specific airway resistance (sRaw) Mean ± S.D. ([1]; inhaled aqueous solution 1 μg/mL): 1.417 ± 0.226 cmH2O · sec | Specific airway resistance (sRaw) Mean ± S.D. ([1]; inhaled aqueous solution 10 μg/mL): 1.383 ± 0.241 cmH2O · sec | Effect on decrease in FEV100 induced by cigarette smoke exposure [2, 5]: significantly inhibited these changes | Effect on increase in residual volume (RV) induced by cigarette smoke exposure [2, 5]: significantly inhibited these changes | RV (residual volume) Mean ± S.D. ([2]; inhaled aqueous solution 1 μg/mL, n=7, control 5.44 ± 1.43, sham 2.75 ± 1.45): 3.45 ± 1.07 mL | FEV100 (forced expiratory volume at 100 msec) Mean ± S.D. ([2]; inhaled aqueous solution 1 μg/mL, n=7, control 5.75 ± 3.29, sham 9.87 ± 1.17): 10.38 ± 1.08 mL | Effect on increase in number of macrophages (monocyte) in BALF induced by cigarette smoke exposure [3, 5]: significantly inhibited the increase in number of macrophages (monocyte) | Monocyte/Macrophage count in bronchoalveolar lavage fluid Mean ± S.D. ([3]; inhaled aqueous solution 1 μg/mL, n=7, control 14.42 ± 3.00, sham 4.52 ± 1.73): 10.35 ± 2.53* 10^2 cells/μL | Cytosolic cytochrome c, compound alone ([4]; 100 nM Compound A alone, no CSE, 24 hours): Neither 0.1% DMSO (B) (vehicle for Compound A) nor Compound A (C) alone significantly affected cytosolic cytochrome c | Cytochrome c translocation induced by CSE ([4]; 100 nM Compound A with 1%, 2.5% and 5% CSE, 24 hrs, compared to DMSO control (P<0.05, P<002 and P<0.005)): protected against the cytochrome c translocation induced by CSE; also recorded: significantly decreased cytochrome c translocation
